Test results reported in patent US20220288048A1, “PIMAVANSERIN FOR TREATING SCHIZOPHRENIA OR FOR TREATING PSYCHOSIS SECONDARY TO NEURODEGENERATIVE DISORDERS OR DEPRESSIVE DISORDER” (ACADIA Pharmaceuticals Inc., priority 2019, published 2022).

Test system: adult schizophrenia patients with a persistent inadequate response to their existing antipsychotic therapy
Test: 6-week study of pimavanserin or placebo added to existing antipsychotic treatment: efficacy rating scales
Type: in vivo, human
Design: key to Marder Disorg, LSM Change from Baseline at W6 / Marder Uncntl, LSM Change from Baseline at W6 / Marder AnxDep, LSM Change from Baseline at W6: PANSS factor score points; PANSS items rated on a 7-point scale; CGI-I, LSM at W6 (column head: Change from Baseline at W6) / DAI-10, LSM Change from Baseline at W6 / KSS, LSM Change from Baseline at W6 / CDSS, LSM Change from Baseline at W6 / SF36 MH, LSM Change from Baseline at W6: scale not given here
Procedure: The effect of pimavanserin as an adjunctive treatment in adult schizophrenia patients with a persistent inadequate response (i.e., partial responders) to their existing antipsychotic therapy was tested. 396 patients with moderate-to-severe psychotic symptoms were randomized to receive either pimavanserin or placebo added to existing antipsychotic treatment. […] Dosages of background oral antipsychotics could not be changed within four weeks of screening and dosages of long-acting injectables (LAI) could not be changed within 16 weeks of screening. […] Patients were administered a daily dose of pimavanserin or a placebo for six weeks. The dose started at 20 mg and could be adjusted to 34 mg or 10 mg between weeks 1 and 3. The majority of patients (56%) completed the study at the highest dose level. Patients were evaluated at baseline and on a weekly basis according to the clinical rating scale Positive and Negative Symptom Scale (PANSS). The PANSS is a 30-item, 7-point rating system that was developed to cover a range of negative symptoms not adequately measured by the Brief Psychiatric Rating Scale. It has sections that specifically measure positive symptoms, negative symptoms, and general psychopathology in schizophrenic subjects. The PANSS is widely used in trials of antipsychotic drug treatment, and has been formally validated for such use. A subset of 5 of the PANSS factors, the […] factors, were also evaluated. Other clinical rating scales that were assessed were the Clinical Global Impression Scale (CGI), Personal and Social Performance Scale (PSP), drug attitude inventory (DAI-10), Karolinska Sleepiness Scale (KSS), Calgary Depression Scale for Schizophrenia (CDSS), 36-item Short Form Physical Health evaluation ([…]) and 36-item Short Form Mental Health evaluation […].

[1] = European sites subgroup, Week 6
[2] = European sites subgroup, Week 6, listed as pimavanserin
[3] = FAS population, W6, Missing as Worsen

CC(C)COc1ccc(CNC(=O)N(Cc2ccc(F)cc2)C2CCN(C)CC2)cc1 [Pimavanserin, N-(4-Fluorophenylmethyl)-N-(1-methylpiperidin-4-yl)-N′-(4-(2-methylpropyloxy)phenylmethyl)carbamide]
PANSS Negative Symptoms Subscale, LS Mean Change at Week 6 (Europe subgroup): −2.9
PANSS Positive Symptoms Subscale, LS Mean Change at Week 6 (Europe subgroup): −5.5
PANSS Negative Symptoms Subscale, Cohen's d Effect Size (Europe subgroup, Week 6): 0.296
PANSS Negative Symptoms Subscale, LS Mean (SE) Difference (Europe subgroup, Week 6): −1.1
PANSS Positive Symptoms Subscale, Cohen's d Effect Size (Europe subgroup, Week 6): 0.195
PANSS Positive Symptoms Subscale, LS Mean (SE) Difference (Europe subgroup, Week 6): −0.8 (0.49)
CGI-S score, Change from Baseline to Week 6, Mean (SE) (European sites subgroup): −0.8 (0.07)
CGI-S score, Week 6, Mean (SE) (European sites subgroup): 3.8 (0.08)
PANSS total score, Change from Baseline to Week 6, Mean (SE) (European sites subgroup): −16.0 (1.06)
PANSS total score, Week 6, Mean (SE) (European sites subgroup): 73.2 (1.18)
CGI-S score, Diff in MMRM LSM (SE), pimavanserin − placebo [1]: −0.2 (0.09)
CGI-S score, Effect Size (Cohen's d) [1]: 0.266
PANSS total score, Diff in MMRM LSM (SE), pimavanserin − placebo [1]: −3.1 (1.37)
PANSS total score, Effect Size (Cohen's d) [1]: 0.261
CGI-S score, Diff in MMRM LSM (SE), pimavanserin − placebo [2]: −0.2
PANSS total score, Diff in MMRM LSM (SE), pimavanserin − placebo [2]: −3.1
CDSS, LSM Change from Baseline at W6 (FAS Population, OC, ANCOVA): −0.6
DAI-10, LSM Change from Baseline at W6 (FAS Population, OC, ANCOVA): 0.4
PSP, LSM Change from Baseline at W6 (FAS Population, OC, ANCOVA): 6.9
SF36 MH, LSM Change from Baseline at W6 (FAS Population, OC, ANCOVA): 5.6
SF36 PH, LSM Change from Baseline at W6 (FAS Population, OC, ANCOVA): 0.46
CDSS, Effect Size (FAS Population, OC, ANCOVA, W6): 0.09
CDSS, Treatment group Comparison (PIM-PBO) LSM (FAS Population, OC, ANCOVA, W6): −0.2
DAI-10, Effect Size (FAS Population, OC, ANCOVA, W6): Neg
DAI-10, Treatment group Comparison (PIM-PBO) LSM (FAS Population, OC, ANCOVA, W6): −0.0
PSP, Effect Size (FAS Population, OC, ANCOVA, W6): 0.15
PSP, Treatment group Comparison (PIM-PBO) LSM (FAS Population, OC, ANCOVA, W6): 1.3
SF36 MH, Effect Size (FAS Population, OC, ANCOVA, W6): 0.11
SF36 MH, Treatment group Comparison (PIM-PBO) LSM (FAS Population, OC, ANCOVA, W6): 1.0
SF36 PH, Effect Size (FAS Population, OC, ANCOVA, W6): 0.00
SF36 PH, Treatment group Comparison (PIM-PBO) LSM (FAS Population, OC, ANCOVA, W6): 0.0
CGI-I, LSM at W6 (column head: Change from Baseline at W6) (FAS Population, OC, MMRM): 2.9
KSS, LSM Change from Baseline at W6 (FAS Population, OC, MMRM): −0.5
Marder AnxDep, LSM Change from Baseline at W6 (FAS Population, OC, MMRM): −2.3
Marder Disorg, LSM Change from Baseline at W6 (FAS Population, OC, MMRM): −2.5
Marder Pos, LSM Change from Baseline at W6 (FAS Population, OC, MMRM): −5.5
Marder Uncntl, LSM Change from Baseline at W6 (FAS Population, OC, MMRM): −1.7
PANSS GenPsy, LSM Change from Baseline at W6 (FAS Population, OC, MMRM): −7.2
PANSS Pos, LSM Change from Baseline at W6 (FAS Population, OC, MMRM): −5.4
CGI-I, Effect Size (FAS Population, OC, MMRM, W6): 0.08
CGI-I, Treatment group Comparison (PIM-PBO) LSM (FAS Population, OC, MMRM, W6): −0.1
KSS, Effect Size (FAS Population, OC, MMRM, W6): 0.23
KSS, Treatment group Comparison (PIM-PBO) LSM (FAS Population, OC, MMRM, W6): −0.3
Marder AnxDep, Effect Size (FAS Population, OC, MMRM, W6): 0.02
Marder AnxDep, Treatment group Comparison (PIM-PBO) LSM (FAS Population, OC, MMRM, W6): −0.0
Marder Disorg, Effect Size (FAS Population, OC, MMRM, W6): 0.18
Marder Disorg, Treatment group Comparison (PIM-PBO) LSM (FAS Population, OC, MMRM, W6): −0.5
Marder Pos, Effect Size (FAS Population, OC, MMRM, W6): 0.16
Marder Pos, Treatment group Comparison (PIM-PBO) LSM (FAS Population, OC, MMRM, W6): −0.8
Marder Uncntl, Effect Size (FAS Population, OC, MMRM, W6): 0.01
Marder Uncntl, Treatment group Comparison (PIM-PBO) LSM (FAS Population, OC, MMRM, W6): −0.0
PANSS GenPsy, Effect Size (FAS Population, OC, MMRM, W6): 0.12
PANSS GenPsy, Treatment group Comparison (PIM-PBO) LSM (FAS Population, OC, MMRM, W6): −0.8
PANSS Pos, Effect Size (FAS Population, OC, MMRM, W6): 0.12
PANSS Pos, Treatment group Comparison (PIM-PBO) LSM (FAS Population, OC, MMRM, W6): −0.5
CGI-I no Chg or Worsened, (%) [3]: (34.7) %
CGI-I no Chg or Worsened, Diff in % (PIM − PBO) [3]: 4.1%
